Results as given in ChEMBL document CHEMBL1201862, “PubChem BioAssay data set” (2004).
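Assay format: 96-well plates, 48-hour exposure. GI50 = concentration required for 50% inhibition of growth.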 The source made the active and inactive calls. Rule as the data show it: active = GI50 up to about 1.1 µM and inactive = higher.

Experiments:
Experiment in all cases: growth of human tumour cells (NCI), 48 h
A549 = system: A549
DU-145 = system: DU-145
HCC 2998 = system: HCC 2998
HOP-62 = system: HOP-62
Hs-578T = system: Hs-578T
IGROV-1 = system: IGROV-1
K562 = system: K562
MDA-MB-435 = system: MDA-MB-435
NCI-H460 = system: NCI-H460
NCI-H522 = system: NCI-H522
RPMI-8226 = system: RPMI-8226
RXF 393 = system: RXF 393
SF-268 = system: SF-268
SF-539 = system: SF-539
SK-MEL-28 = system: SK-MEL-28
SN12C = system: SN12C
SNB-75 = system: SNB-75
TK-10 = system: TK-10
OVCAR-3 = system: OVCAR-3
LOX IMVI = system: LOX IMVI

Structure (SMILES)	GI50 (A549)	GI50 (DU-145)	GI50 (HCC 2998)	GI50 (HOP-62)	GI50 (Hs-578T)	GI50 (IGROV-1)	GI50 (K562)	GI50 (MDA-MB-435)	GI50 (NCI-H460)	GI50 (NCI-H522)	GI50 (RPMI-8226)	GI50 (RXF 393)	GI50 (SF-268)	GI50 (SF-539)	GI50 (SK-MEL-28)	GI50 (SN12C)	GI50 (SNB-75)	GI50 (TK-10)	GI50 (OVCAR-3)	GI50 (LOX IMVI)
O=C(CCc1cc(O)ccc1O)OCCc1ccccc1	> 100 µM (inactive)	19.9 µM (inactive)	47.2 µM (inactive)	36.1 µM (inactive)	16.1 µM (inactive)	12.7 µM (inactive)	1.4 µM (inactive)	10.4 µM (inactive)	44.8 µM (inactive)	0.28 µM (active)	0.875 µM (active)	11.7 µM (inactive)	5.64 µM (inactive)	3.83 µM (inactive)	25.1 µM (inactive)	16.8 µM (inactive)	> 64.1 µM (inactive)	14.7 µM (inactive)		
Cc1cc(-c2ccc[nH]2)on1	> 100 µM (inactive)	> 100 µM (inactive)	> 100 µM (inactive)	> 100 µM (inactive)	> 100 µM (inactive)	> 100 µM (inactive)	> 100 µM (inactive)	> 100 µM (inactive)	> 100 µM (inactive)	> 100 µM (inactive)	> 100 µM (inactive)	> 100 µM (inactive)	> 100 µM (inactive)		> 100 µM (inactive)		> 100 µM (inactive)	> 100 µM (inactive)	> 100 µM (inactive)	
CC(C)(C)CN1[C@@H]2CCCC[C@H]2N(CC(C)(C)C)P1(=O)Cc1ccccc1	11.6 µM (inactive)	15.6 µM (inactive)	9.14 µM (inactive)	16.4 µM (inactive)	15.7 µM (inactive)	11 µM (inactive)	13.6 µM (inactive)	16.2 µM (inactive)	13.2 µM (inactive)	7.48 µM (inactive)		10.8 µM (inactive)	15 µM (inactive)	17.3 µM (inactive)	16.9 µM (inactive)	16.3 µM (inactive)	11.4 µM (inactive)	12.5 µM (inactive)	10.7 µM (inactive)	15.7 µM (inactive)
CCCCCCCCCCCCCCCCCCNc1ccn(C2OC(COP(=O)(O)O)C(O)C2O)c(=O)n1 (stereo not given)	> 100 µM (inactive)	> 100 µM (inactive)	> 100 µM (inactive)	> 100 µM (inactive)	> 100 µM (inactive)	> 100 µM (inactive)	> 100 µM (inactive)	> 100 µM (inactive)		> 100 µM (inactive)	> 100 µM (inactive)	> 100 µM (inactive)	> 100 µM (inactive)	> 100 µM (inactive)	> 100 µM (inactive)	> 100 µM (inactive)	> 100 µM (inactive)	> 100 µM (inactive)	> 100 µM (inactive)	> 100 µM (inactive)
O=C(/C=C/c1cc2ccccc2o1)N1CCN(c2ccccn2)CC1	> 100 µM (inactive)	> 100 µM (inactive)	> 100 µM (inactive)	97.9 µM (inactive)	> 100 µM (inactive)	84.1 µM (inactive)	> 100 µM (inactive)	> 100 µM (inactive)	91.6 µM (inactive)	28 µM (inactive)	> 100 µM (inactive)	> 100 µM (inactive)	> 100 µM (inactive)	> 100 µM (inactive)	35.9 µM (inactive)	> 100 µM (inactive)		79.6 µM (inactive)	62.7 µM (inactive)	> 100 µM (inactive)
CC1=C2c3ccccc3N(S(=O)(=O)c3ccccc3)[C@H]2[C@H](C(=O)N2C3CC4CC[C@@]3(CS2(=O)=O)C4(C)C)CC1 (stereo not given in full)	35.3 µM (inactive)	> 100 µM (inactive)		16.4 µM (inactive)	0.627 µM (active)	59.4 µM (inactive)	7.24 µM (inactive)	56.5 µM (inactive)	5.48 µM (inactive)	10.8 µM (inactive)	0.334 µM (active)	0.222 µM (active)	17.9 µM (inactive)	0.415 µM (active)	> 100 µM (inactive)	39.1 µM (inactive)	0.635 µM (active)	43.9 µM (inactive)	17 µM (inactive)	23.6 µM (inactive)
O=C(Cc1ccccc1)NCCCN(CCCCN(CCCNC(=O)Cc1ccccc1)C(=O)OCc1ccccc1)C(=O)OCc1ccccc1	> 43 µM (inactive)	> 100 µM (inactive)	> 38.1 µM (inactive)	> 100 µM (inactive)	> 100 µM (inactive)	> 100 µM (inactive)	7.24 µM (inactive)	> 100 µM (inactive)	> 19.9 µM (inactive)	1.42 µM (inactive)	4.19 µM (inactive)	> 31.4 µM (inactive)	> 100 µM (inactive)	> 100 µM (inactive)	> 100 µM (inactive)	> 100 µM (inactive)		> 100 µM (inactive)	> 100 µM (inactive)	> 100 µM (inactive)
